# Data taken from patent US20070015774A1, “Quinazoline derivatives useful in cancer treatment” (Schering Corporation, priority 2005, published 2007).
# Biological target: GST-p53 DNA binding domain (aa 92-aa 312) (Homo sapiens, UniProt P04637)
# Assay: Scintillation Proximity Assay (SPA), displacement of 3H STANDARD COMPOUND
# Conditions: 2 ug/mL; residual total binding of 3H STANDARD COMPOUND
# From the text: Most of the oncogenic mutants of the tumor suppressor protein p53 lack sequence specific DNA binding activity at physiological temperature due to conformational changes in the DNA binding domain. Small molecules and peptide which bind to the p53 DNA binding domain stabilize the conformation and restore DNA binding activity to mutant p53 protein (Science 286, 2507-2510, 1999; PNAS, 99, 937-942, 2002). Using ^3H STANDARD COMPOUND (structure shown below; carbon atom with * is the atom labelled), [drawing 1366] a radio labeled small molecule which binds to p53, and the GST-p53 DNA binding domain (aa 92-aa 312), we have developed a quantitative screening assay. The assay is based on Scintillation Proximity Assay (SPA) technology, developed by Amersham Biosciences to measure molecular interactions. Briefly, the complex of GST-p53, ^3H STANDARD and Glutathione-SPA beads (Amersham Biosciences) are incubated with mixing for 1 hr at room temperature in the presence of the novel compounds to be screened. The signal is read on Microbeta. The compounds which have the ability to displace ^3H STANDARD COMPOUND are selected. Such molecules will stabilize the conformation and restore DNA binding activity to mutant p53 protein.
# The above assay was used to determine the ability of the compounds of this invention to directly bind to p53 core and restore DNA binding activity to mutant p53 and the results for selected compounds have been given above in various tables.
# A letter rating corresponding to % Residual total binding (T) @ 2 ug/mL of drug (i.e., compound of the present invention) from this assay have been assigned as follows: Compounds having % Residual T values of from 0% to less than 20% have been assigned the letter “A”. Compounds having % Residual T values of from 20% to less than 40% have been assigned the letter “B”. Compounds having % Residual T values of from 40% to less than 80% have been assigned the letter “C”. Compounds having % Residual T values of 80% or higher have been assigned the letter “D”. The exact % Residual T values @ 2 ug/mL for some illustrative compounds are shown below: […]
# Sequence of GST-p53 DNA binding domain (aa 92-aa 312) (P04637 92-312): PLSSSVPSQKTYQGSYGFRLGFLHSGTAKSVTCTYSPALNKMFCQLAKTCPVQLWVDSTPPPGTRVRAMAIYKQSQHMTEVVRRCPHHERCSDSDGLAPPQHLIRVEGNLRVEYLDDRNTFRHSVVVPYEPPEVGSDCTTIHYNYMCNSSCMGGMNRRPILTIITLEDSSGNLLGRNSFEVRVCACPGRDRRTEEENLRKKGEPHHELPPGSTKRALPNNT
row,SMILES,% Residual T @ 2 ug/mL according to scintillation proximity assay (SPA)
1,"CN(Cc1ccccc1)Cc1nc2ccccc2c(=O)[nH]1 [Preparative Example 17, 2-[(benzylmethylamino)methyl]-3H-quinazolin-4-one]",B (% Residual T values of from 20% to less than 40%)
2,"CN(C)CCCNc1nc(CN(C)Cc2ccccc2)nc2ccccc12 [Preparative Example 19, N,N-dimethyl-N′-[2-{(N-methyl-N-benzylamino)methyl}quinazolin-4-yl]propane-1,3-diamine]",B (% Residual T values of from 20% to less than 40%)
3,"CNCc1nc(NCCCN(C)C)c2ccccc2n1 [Preparative Example 20, N,N-DIMETHYL-N′-[2-(METHYLAMINOMETHYL)QUINAZOLIN-4-YL]PROPANE-1,3-DIAMINE]",C (% Residual T values of from 40% to less than 80%)
4,"CN(C)CCC[C@H](N)C(N)=O [Preparative Example 42, 2(S)-(+)-AMINO-5-DIMETHYLAMINOPENTANAMIDE]",D (% Residual T values of 80% or higher)
